Results from patent US20240366711A1, “PREPARATION CONTAINING CYCLIC PEPTIDE COMPOUND AND METHOD FOR PRODUCING SAME” (CHUGAI SEIYAKU KABUSHIKI KAISHA, priority 2021, published 2024).
Bridge positions count the residues as written; N and C are the ends. Square brackets hold non-standard residues; d marks the D form. Peptide text beside a SMILES is read from it. hPhe(3,5-F2-4-CF3) = N[C@@H](CCc1cc(F)c(C(F)(F)F)c(F)c1)C(=O)O; NEtPhe(4-Me) = CCN[C@@H](Cc1ccc(C)cc1)C(=O)O; NMeGly(cPent) = CN[C@H](C(=O)O)C1CCCC1; NMeD = CN[C@@H](CC(=O)O)C(=O)O; NMeL = CN[C@@H](CC(C)C)C(=O)O; NMeA = CN[C@@H](C)C(=O)O; Ac5c = NC1(C(=O)O)CCCC1; Aze = O=C(O)[C@@H]1CCN1; Sar = CNCC(=O)O

What was measured:
[1] = system: Human pancreatic cancer strain AsPC-1; test: AsPC-1 cell growth inhibitory activity (AsPC-1CGI); format: cell-based; conditions: AsPC-1 cells, 96 hours, CellTiter-Glo; read-out: IC50 value (50% growth inhibition concentration)
Method: AsPC-1 cell growth inhibitory activity can be performed by methods known to those skilled in the art using devices, reagents, cell lines, and the like available from commercial suppliers. Specifically, Compound 1 was serially diluted with dimethyl sulfoxide, then 200 nL of the dilution was dispensed into the U-bottom 96 well plate with Labcyte Echo. Human pancreatic cancer strain AsPC-1 was added to RPMI-1640 medium supplemented with 15% bovine fetal serum to prepare a cell suspension of 1000 cells/100 μL. The cell suspension was dispensed by 100 μL per well to Compound 1-added plates, and cultured in a 37° C., 5% carbon dioxide gas incubator. After 96 hours, 80 μL of CellTiter-Glo (Promega Corporation) was added to each well, and […] was measured. Cell growth inhibition (CGI) of the test compound was calculated as 50% growth inhibition concentration (IC50 value) from the growth inhibition rate of the case with addition of Compound I to the control without addition of Compound 1.

[2] = molecular target: Kras-SOS1 protein-protein interaction (Homo sapiens, UniProt P01116, G12D); test: Kras-SOS1 protein-protein interaction inhibition (KrasG12D-SOS PPI) using AlphaScreen; format: binding; conditions: biotin-tagged human Kras (GDP-loaded) and His-tagged human SOS1, AlphaScreen
Kras-SOS1 protein-protein interaction, sequence (P01116 whole entry G12D): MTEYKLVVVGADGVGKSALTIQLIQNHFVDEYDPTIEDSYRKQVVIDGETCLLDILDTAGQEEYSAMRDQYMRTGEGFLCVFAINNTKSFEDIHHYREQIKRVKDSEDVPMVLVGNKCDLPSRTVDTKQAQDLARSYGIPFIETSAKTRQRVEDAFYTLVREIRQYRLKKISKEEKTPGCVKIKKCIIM
Method: Kras-SOS1 protein-protein interaction inhibition (PPI) can be performed by a method known to those skilled in the art using a device, a reagent, or the like available from commercial suppliers. Specifically, biotin-tagged human Kras and His-tagged human SOS1 enzymes expressed in E. coli and loaded with GDP after purification were used to measure PPI by energy transfer from nickel-bound donor beads to streptavidin-bound acceptor beads. This measurement is performed by irradiating the donor beads with light of 680 nm to induce energy transfer to the acceptor beads via singlet oxygen, and detecting light of 520 to 620 nm from the acceptor beads. Based on the inhibition of the control group without Compound 1, 50% inhibitory concentration (IC50 value) was calculated.

CC[C@H](C)[C@@H]1NC(=O)[C@H](CC(C)C)N(C)C(=O)C[C@@H](C(=O)N(C)C)N(C)C(=O)[C@H](C2CCCC2)N(C)C(=O)C2(CCCC2)NC(=O)[C@@H]2CCCN2C(=O)[C@H](CCc2cc(F)c(C(F)(F)F)c(F)c2)NC(=O)CN(C)C(=O)[C@H](Cc2ccc(C)cc2)N(CC)C(=O)[C@@H]2CCN2C(=O)[C@H](C)N(C)C1=O [Compound 1, (5S,8S,11S,15S,18S,23aS,29S,35S,37aS)-8-((S)-sec-butyl)-18-cyclopentyl-29-(3,5-difluoro-4-(trifluoromethyl)phenethyl)-36-ethyl-11-isobutyl-N,N,5,6,12,16,19,33-octamethyl-35-(4-methylbenzyl)-4,7,10,13,17,20,23,28,31,34,37-undecaoxotetratriacontahydro-2H,4H-spiro[azeto[2,1-u]pyrrolo[2,1-i][1,4,7,10,13,16,19,22,25,28,31]undecaazacyclotetratriacontin-21,1′-cyclopentane]-15-carboxamide] ([NMeL]I[NMeA][Aze][NEtPhe(4-Me)][Sar][hPhe(3,5-F2-4-CF3)]P[Ac5c][NMeGly(cPent)][NMeD]-NMe2; lactam N-11)
IC50 [1]: ≤ 20 nM
IC50 [2]: 1 nM
